Consider four compounds from publication PMC6165432 (International Journal of Molecular Sciences, 2018).

The target of one data set is mAhR (Mus musculus, UniProt P30561, M324I). Also on record: host or cells: rabbit reticulocyte lysate, coupled transcription/translation. The note with it: in vitro synthesized AhRs, specific binding. As for the experimental part:
(§1) [^3H]TCDD specific binding was determined by subtracting the amount of [^3H]TCDD bound to unprogrammed lysate (nonspecific binding) from the total amount of [^3H]TCDD binding to lysate containing in vitro expressed AhR.

A further data set has as its target mutant mAhR A349T (Mus musculus, UniProt P30561, A349T/M324I). Also on record: host or cells: rabbit reticulocyte lysate, coupled transcription/translation. The note with it: specific binding. How it is done:
as §1

For another data set, the target named is T1, mouse AhR (mAhR) (Mus musculus, UniProt P30561).
T1 sequence (P30561 10-805): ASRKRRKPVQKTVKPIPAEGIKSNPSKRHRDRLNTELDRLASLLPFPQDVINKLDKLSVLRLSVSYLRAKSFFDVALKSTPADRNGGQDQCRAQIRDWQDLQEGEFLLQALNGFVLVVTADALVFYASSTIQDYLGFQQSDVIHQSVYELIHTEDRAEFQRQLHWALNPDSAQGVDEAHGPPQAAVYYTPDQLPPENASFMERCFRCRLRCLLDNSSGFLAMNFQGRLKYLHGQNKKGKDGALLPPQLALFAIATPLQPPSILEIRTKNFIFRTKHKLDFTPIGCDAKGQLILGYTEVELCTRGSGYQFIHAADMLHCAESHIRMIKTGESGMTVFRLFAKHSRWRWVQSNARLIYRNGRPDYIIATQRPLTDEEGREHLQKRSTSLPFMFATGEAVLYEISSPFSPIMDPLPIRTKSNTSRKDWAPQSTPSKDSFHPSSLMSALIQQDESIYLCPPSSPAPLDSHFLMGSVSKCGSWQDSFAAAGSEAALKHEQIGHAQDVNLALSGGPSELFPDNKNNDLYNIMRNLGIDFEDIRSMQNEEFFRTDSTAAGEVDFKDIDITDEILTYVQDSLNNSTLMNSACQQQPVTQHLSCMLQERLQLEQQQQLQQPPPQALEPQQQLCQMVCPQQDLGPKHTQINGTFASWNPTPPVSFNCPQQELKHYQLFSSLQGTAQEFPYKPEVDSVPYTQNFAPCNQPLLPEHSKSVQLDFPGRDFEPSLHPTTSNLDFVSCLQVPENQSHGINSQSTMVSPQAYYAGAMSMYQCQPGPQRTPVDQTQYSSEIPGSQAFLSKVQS
Kind of data set: AhR-responsive luciferase reporter gene assay in stably transfected mouse H1L6.1c3 hepatoma cells. The note with it: mouse H1L6.1c3 hepatoma cells, 4 h, mean ± SD of nine analyses; read-out: EC50 to stimulate luciferase reporter gene expression, Mouse. It counts as cell-based. For orientation: In a reporter assay the amount or activity of a reporter protein is the signal.

The target of another data set is T2, human AhR (hAhR) (Homo sapiens, UniProt P35869).
T2 sequence (P35869 11-848): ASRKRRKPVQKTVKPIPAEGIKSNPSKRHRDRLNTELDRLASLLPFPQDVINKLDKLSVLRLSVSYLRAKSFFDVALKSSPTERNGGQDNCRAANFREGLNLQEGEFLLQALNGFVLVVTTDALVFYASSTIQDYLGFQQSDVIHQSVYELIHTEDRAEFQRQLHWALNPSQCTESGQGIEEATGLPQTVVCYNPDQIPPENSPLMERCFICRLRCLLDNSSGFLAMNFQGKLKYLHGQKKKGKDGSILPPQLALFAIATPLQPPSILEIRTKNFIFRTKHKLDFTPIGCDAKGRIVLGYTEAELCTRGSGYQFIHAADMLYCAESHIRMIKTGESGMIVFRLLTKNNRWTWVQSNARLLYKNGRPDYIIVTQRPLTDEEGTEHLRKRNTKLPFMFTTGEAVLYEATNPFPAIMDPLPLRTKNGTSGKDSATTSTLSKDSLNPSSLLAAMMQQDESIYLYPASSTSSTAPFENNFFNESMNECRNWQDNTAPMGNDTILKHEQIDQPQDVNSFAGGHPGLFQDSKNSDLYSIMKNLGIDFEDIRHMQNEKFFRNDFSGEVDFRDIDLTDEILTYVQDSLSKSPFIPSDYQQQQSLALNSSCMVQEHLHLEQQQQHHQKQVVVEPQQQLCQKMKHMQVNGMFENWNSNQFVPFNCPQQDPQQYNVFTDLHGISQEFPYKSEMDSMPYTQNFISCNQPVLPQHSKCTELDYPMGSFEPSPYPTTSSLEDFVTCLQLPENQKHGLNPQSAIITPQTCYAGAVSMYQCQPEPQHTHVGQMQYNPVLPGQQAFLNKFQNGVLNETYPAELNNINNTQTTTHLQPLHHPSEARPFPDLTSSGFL
Kind of data set: AhR-responsive luciferase reporter gene assay in stably transfected human HG2L6.1c1 hepatoma cells.

Sequence of mAhR (P30561 10-805 M324I limits assumed): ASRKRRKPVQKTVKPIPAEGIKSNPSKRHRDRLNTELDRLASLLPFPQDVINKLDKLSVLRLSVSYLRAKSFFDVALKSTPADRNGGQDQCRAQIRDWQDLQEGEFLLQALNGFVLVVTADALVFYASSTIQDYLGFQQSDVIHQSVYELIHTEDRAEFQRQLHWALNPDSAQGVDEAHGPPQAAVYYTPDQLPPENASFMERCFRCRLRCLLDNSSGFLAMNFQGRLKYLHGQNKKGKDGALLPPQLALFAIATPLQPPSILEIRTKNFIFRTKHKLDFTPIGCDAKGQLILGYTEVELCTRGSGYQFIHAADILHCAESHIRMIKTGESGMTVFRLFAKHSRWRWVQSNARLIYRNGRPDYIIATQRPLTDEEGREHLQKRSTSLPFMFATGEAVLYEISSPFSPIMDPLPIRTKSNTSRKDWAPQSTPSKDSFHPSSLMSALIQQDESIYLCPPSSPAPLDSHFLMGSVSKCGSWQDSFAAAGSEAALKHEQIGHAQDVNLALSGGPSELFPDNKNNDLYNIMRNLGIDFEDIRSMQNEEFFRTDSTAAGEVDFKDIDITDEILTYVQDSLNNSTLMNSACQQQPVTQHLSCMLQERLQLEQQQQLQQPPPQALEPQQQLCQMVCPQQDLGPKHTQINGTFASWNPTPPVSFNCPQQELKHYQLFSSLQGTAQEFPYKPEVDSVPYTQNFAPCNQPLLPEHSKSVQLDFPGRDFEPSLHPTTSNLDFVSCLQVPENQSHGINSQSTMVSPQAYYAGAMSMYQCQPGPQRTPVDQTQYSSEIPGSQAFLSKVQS
Sequence of mutant mAhR A349T (P30561 10-805 M324I/A349T limits assumed): as the sequence (P30561 10-805 M324I limits assumed) above, with A340T counted along it
Procedure for human AhR (hAhR): (§2) AhR-dependent gene transcription was determined in (A) human HG2L6.1c.1 and (B) mouse H1L6.1c.3 hepatoma cell lines that contain a stably transfected AhR-responsive luciferase reporter gene. […] Luciferase activity (Relative Light Units (RLUs)) was normalized to the maximal induction observed with TCDD in each cell line. Values represent the mean ± SD of nine independent analyses.
(§3) Recombinant mouse (H1L6.1c3) and human (HG2L6.1c1) hepatoma cells containing a stably integrated AhR-responsive luciferase reporter gene plasmid (pGudLuc6.1) were plated (750,000 cells/well) in 96-well plates and incubated at 37 °C for 24 h prior to chemical treatment. Cells were incubated with DMSO (1% (v/v)) or the indicated concentration of test chemical in DMSO for 4 h, followed by visual inspection of the cells for toxicity, washing of the cells with phosphate-buffered saline (PBS), addition of 50 µL of passive lysis buffer (Promega) and lysis of cells for 20 min at room temperature with shaking [50]. Luciferase activity in each well was measured (integrating luminescence over 10 s with a 10 s delay) in an Orion microplate luminometer (Berthold Detection Systems, Bad Wildbad, Germany) following automatic injection of Promega stabilized luciferase reagent.
(§4) Analysis of statistical significance of differences between experimental values was conducted using Two-Way ANOVA and EC50s and IC50s were calculated using nonlinear regression (three parameter) analysis in GraphPad Prism v.7 (La Jolla, CA, USA).
Procedure for mouse AhR (mAhR): as §2, §3, §4

Turning to `Clc1cc2c(cc1Cl)Oc1cc(Cl)c(Cl)cc1O2` [[^3H]TCDD], at mAhR, the “more [3H]TCDD bound to wild-type mAhR than to the mAhR-hAhRLBD chimera” value is ~ 10%. Besides, the “[3H]TCDD binding to A349T mutant mAhR compared with wild-type mAhR” value at mutant mAhR A349T is “not significantly different from that of the wild-type mAhR”.
Take `O=Cc1c2[nH]c3ccccc3c2cc2[nH]c3ccccc3c12` [FICZ, 6-formylindolo[3,2-b]carbazole]: the EC50 on mouse AhR (mAhR) amounted to 3.71 ± 0.85 nM.
With `COC(=O)c1csc(C(=O)c2c[nH]c3ccccc23)n1` [ITE, 2-(1H-Indol-3-ylcarbonyl)-4-thiazolecarboxylic acid methyl ester], on mouse AhR (mAhR), the EC50 at 4 h was 22.3 ± 3.53 nM. This compound yielded an EC50 on human AhR (hAhR) of 184 ± 42.1 nM.
As to `O=c1cc(-c2ccccc2)oc2ccc3ccccc3c12` [BNF, β-naphthoflavone], the EC50 on mouse AhR (mAhR) is 1.84 ± 1.14 nM. Besides, the “maximal level of reporter gene induction” value on human AhR (hAhR) (human HG2L6.1c1 cells, relative to TCDD) is listed as “maximal induction was not observed”.

The term EC50 denotes the concentration needed to bring the measured effect to its halfway point.
